Source: US12084444B2, “Spiro-lactam NMDA modulators and methods of using same” (Tenacia Biotechnology (Hong Kong) Co., Limited, priority 2016, dated 2024)

Test system: Sprague Dawley rats
Assay: Bennett model of mechanical analgesia (sciatic nerve chronic constriction injury)
Format: in vivo
Procedure: The Bennett model of mechanical analgesia is used to assess the analgesic effects of compounds as measured by paw withdrawal threshold. Bennett G J, Xie Y K, “A peripheral mononeuropathy in rat that produces disorders of pain sensation like those seen in man,” Pain 33:87-107, 1988. […] Vehicle animals receive the surgery and then receive vehicle rather than test compound. Animals were tested 1 hr, 24 h and 1 wk post-test compound or vehicle administration.
Male 2-3 month old Sprague Dawley rats were used. Harlan was the supplier for all studies. Rats were housed in Lucite cages with aspen wood chip bedding, maintained on a 12:12 light:dark cycle (lights on at 5 AM), and given ad libitum access to Purina lab chow (USA) and tap water throughout the study.
Rats were anesthetized using inhaled isoflurane (2.5%). Sciatic nerve chronic constriction nerve injury surgery was performed as previously described (Bennett and Xie, 1988). An incision (˜1.5 cm in length) was made with a scalpel blade dorsally through skin on the right hind limb, parallel and posterior to femur. Using a small pointed hemostat, the biceps femoris and gluteus superficialis muscles were separated. Using curved blunt forceps, the common sciatic nerve was isolated and exposed. For the mechanical analgesia studies, the whole sciatic nerve was ligated. Using hemostats/forceps and chromic gut (5-0), the nerve was loosely ligated with a square knot; 3 ligatures, 1 mm apart were placed on the nerve. […] Testing occurred approximately 2 weeks post-surgery.
During testing, rats were acclimated to the surface of a suspended wire mesh grid (1 cm×1 cm, with the wire being 0.3 cm in diameter) for 15-20 min. Starting from the smallest, each Von Frey filament was pressed perpendicularly to the plantar surface of the affected (ipsilateral) hind paw until slightly bent and then held for 6 second. If an obvious hind paw withdrawal or a flinching behavior immediately after the withdrawal of the filament was not observed, the next larger filament was used in the same manner. In case of a response, a lower filament was used. This was repeated until six responses were collected.
For all studies, animals were baselined prior to study start to test for allodynia (defined as a paw withdrawal threshold under 5). A subset of animals was tested with gabapentin (150 mg/kg, PO) to ensure at least 50% analgesia. Once it was confirmed animals were ready for study initiation, animals were balanced across groups. All study investigators were blind to treatment conditions. Animals were dosed with 0.1, 1, 10, or 30 mg/kg of test compound via oral gavage (PO), control sets of animals were dosed with gabapentin (150 mg/kg, PO) or vehicle (0.5% Na-CMC in 0.9% sterile saline, PO). Testing occurred 1 h post-dosing with animals retested 24 hrs and 1 week post-dosing. The percent analgesia calculations for each animal were made using the following equation: % analgesia=[(log(x)−y)/((log (z)−y)]*100, where x=the paw withdrawal threshold for the drug-treated animal in grams, y=the average of the log(x) values for the vehicle treated group, and z=the paw withdrawal threshold for naïve animals in grams (historical value of 15 used). The results for Compound AA-2, where the percentage of analgesia is measured at 1 hour, 24 hours, and 1 week after compound administration are as follows: for 0.1 mg/kg dose: 22.3% at 1 h, 1.6% at 24 h, and 2.3% at 1 wk; for 1 mg/kg dose: 19.2% at 1 h, 10.7% at 24 h, and 11.0% at 1 wk; for 10 mg/kg dose: 38.1% at 1 h, 24.3% at 24 h, and 41.4% at 1 wk; and for 30 mg/kg dose: 24.4% at 1 h, 8.7% at 24 h, and 34.5% at 1 wk.

## COc1ccc(CN2C[C@@]3(CCNC(=O)C3)C2=O)cc1 [Compound AA-2, 2-(4-methoxybenzyl)-2,7-diazaspiro[3.5]nonane-1,6-dione]
0.1 mg/kg PO, 1 wk
  % analgesia: 2.3%
0.1 mg/kg PO, 1 h
  % analgesia: 22.3%
0.1 mg/kg PO, 24 h
  % analgesia: 1.6%
1 mg/kg PO, 1 wk
  % analgesia: 11.0%
1 mg/kg PO, 1 h
  % analgesia: 19.2%
1 mg/kg PO, 24 h
  % analgesia: 10.7%
10 mg/kg PO, 1 wk
  % analgesia: 41.4%
10 mg/kg PO, 1 h
  % analgesia: 38.1%
10 mg/kg PO, 24 h
  % analgesia: 24.3%
30 mg/kg PO, 1 wk
  % analgesia: 34.5%
30 mg/kg PO, 1 h
  % analgesia: 24.4%
30 mg/kg PO, 24 h
  % analgesia: 8.7%
